Values of other authors, collected in PMC4871733 (Nature chemical biology, 2016).

What was measured:
[1] = after 30 minute exposure
[2] = after 30 minute exposure; remark: listed apart in the source
[3] = after 30 minute exposure; remark: listed apart in the source
[4] = not given; remark: listed apart in the source

SMILES: Cn1c2cc([S+](C)[O-])sc2c2cnn(Cc3cccc(N)c3)c(=O)c21 (centres unmarked) [ML265]
- Efflux ratio: 1.35
- Stability in rat liver microsomes [1]: > 90%
- Stability in human liver microsomes [2]: > 90%
- Stability in mouse liver microsomes [3]: > 90%
- Aqueous kinetic solubility [4]: 79 µM
